Experimental data as given in article PMC3549563 (Journal of Neurochemistry, 2012).

Target: T1, ACR-16 (Caenorhabditis elegans, UniProt P48180)
T1 sequence (P48180 20-498): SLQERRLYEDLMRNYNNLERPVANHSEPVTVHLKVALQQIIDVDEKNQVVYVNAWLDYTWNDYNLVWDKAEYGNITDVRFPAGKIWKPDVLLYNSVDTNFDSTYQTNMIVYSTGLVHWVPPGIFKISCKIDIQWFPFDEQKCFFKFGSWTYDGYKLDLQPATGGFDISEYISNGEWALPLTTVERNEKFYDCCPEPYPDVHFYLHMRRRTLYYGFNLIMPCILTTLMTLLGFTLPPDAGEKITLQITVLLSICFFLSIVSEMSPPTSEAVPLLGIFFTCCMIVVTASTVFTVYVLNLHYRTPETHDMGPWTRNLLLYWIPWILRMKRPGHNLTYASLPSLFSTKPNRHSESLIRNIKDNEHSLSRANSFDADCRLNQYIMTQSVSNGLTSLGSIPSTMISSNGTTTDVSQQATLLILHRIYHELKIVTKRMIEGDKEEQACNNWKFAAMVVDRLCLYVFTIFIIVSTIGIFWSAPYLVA
Test: two-electrode voltage clamp, Xenopus oocytes, peak current
Assay type: cell-based

SMILES | EC50 [µM]
CN1CCC[C@H]1c1cccnc1 [nicotine] | 22
CC(=O)OCC[N+](C)(C)C [acetylcholine] | 24
